Experimental data reported in ChEMBL document CHEMBL5649169 (ChemMedChem, 2018).

Key:
[1] = target: Mitogen-activated protein kinase kinase kinase kinase 3 (Homo sapiens) (UniProt Q8IVH8); further: assay method not described here
[2] = target: Mitogen-activated protein kinase kinase kinase kinase 2 (Homo sapiens) (UniProt Q12851); further: assay method not described here
[3] = target: Cell division cycle 7-related protein kinase (Homo sapiens) (UniProt O00311); further: assay method not described here
[4] = target: Ubiquitin-protein ligase E3C (Homo sapiens) (UniProt Q15386); further: assay method not described here
[5] = target: Catechol O-methyltransferase (Homo sapiens) (UniProt P21964); further: assay method not described here
[6] = target: Membrane-associated tyrosine- and threonine-specific cdc2-inhibitory kinase (Homo sapiens) (UniProt Q99640); further: assay method not described here
[7] = species: Homo sapiens; further: assay method not described here
[8] = target: Ephrin type-B receptor 4 (Homo sapiens) (UniProt P54760); further: assay method not described here
Ephrin type-B receptor 4 (Homo sapiens), sequence (P54760 whole entry): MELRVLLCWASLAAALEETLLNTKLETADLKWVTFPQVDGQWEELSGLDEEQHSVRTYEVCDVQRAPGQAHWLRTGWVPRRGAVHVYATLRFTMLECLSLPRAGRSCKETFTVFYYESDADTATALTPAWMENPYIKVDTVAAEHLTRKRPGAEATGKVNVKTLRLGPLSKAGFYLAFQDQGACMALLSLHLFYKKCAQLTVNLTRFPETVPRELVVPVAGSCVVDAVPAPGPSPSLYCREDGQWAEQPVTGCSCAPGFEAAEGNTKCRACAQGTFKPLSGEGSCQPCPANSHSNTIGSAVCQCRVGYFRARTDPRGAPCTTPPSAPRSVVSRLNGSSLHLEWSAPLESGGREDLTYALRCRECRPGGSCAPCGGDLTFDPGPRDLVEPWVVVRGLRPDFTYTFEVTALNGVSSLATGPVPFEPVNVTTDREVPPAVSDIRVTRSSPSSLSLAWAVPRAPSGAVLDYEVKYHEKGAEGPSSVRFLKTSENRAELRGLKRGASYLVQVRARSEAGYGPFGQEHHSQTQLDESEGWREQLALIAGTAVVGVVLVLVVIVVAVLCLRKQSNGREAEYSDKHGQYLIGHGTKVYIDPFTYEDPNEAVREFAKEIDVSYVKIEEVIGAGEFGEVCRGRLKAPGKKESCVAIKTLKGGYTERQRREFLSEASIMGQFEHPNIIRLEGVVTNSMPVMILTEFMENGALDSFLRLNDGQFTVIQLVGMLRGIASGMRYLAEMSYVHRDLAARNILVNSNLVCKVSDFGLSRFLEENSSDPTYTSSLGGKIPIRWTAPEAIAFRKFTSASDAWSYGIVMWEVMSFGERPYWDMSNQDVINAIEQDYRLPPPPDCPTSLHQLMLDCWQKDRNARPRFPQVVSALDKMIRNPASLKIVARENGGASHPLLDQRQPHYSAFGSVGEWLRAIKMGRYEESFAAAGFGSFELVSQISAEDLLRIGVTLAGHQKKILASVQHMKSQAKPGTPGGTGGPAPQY

[9] = target: ADP-ribosylation factor-like protein 1 (Homo sapiens) (UniProt P40616); further: assay method not described here
[10] = target: Tubulin-specific chaperone D (Homo sapiens) (UniProt Q9BTW9); further: assay method not described here
[11] = target: Cyclin-dependent kinase 9 (Homo sapiens) (UniProt P50750); further: assay method not described here
[12] = target: Adenosine 5'-monophosphoramidase HINT1 (Homo sapiens) (UniProt P49773); further: assay method not described here
[13] = target: Mediator of RNA polymerase II transcription subunit 23 (Homo sapiens) (UniProt Q9ULK4); further: assay method not described here
[14] = target: Surfeit locus protein 4 (Homo sapiens) (UniProt O15260); further: assay method not described here
Surfeit locus protein 4 (Homo sapiens), sequence (O15260 whole entry): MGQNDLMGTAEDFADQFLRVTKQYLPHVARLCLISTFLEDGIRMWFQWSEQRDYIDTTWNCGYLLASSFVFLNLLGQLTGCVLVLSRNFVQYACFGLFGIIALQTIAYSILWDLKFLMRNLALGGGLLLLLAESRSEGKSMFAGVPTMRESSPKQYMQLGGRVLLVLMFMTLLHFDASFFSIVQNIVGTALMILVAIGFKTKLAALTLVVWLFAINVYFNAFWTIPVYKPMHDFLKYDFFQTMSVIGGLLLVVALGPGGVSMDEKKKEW

[15] = target: SERPINE1 mRNA-binding protein 1 (Homo sapiens) (UniProt Q8NC51); further: assay method not described here
[16] = target: Casein kinase I isoform gamma-1 (Homo sapiens) (UniProt Q9HCP0); further: assay method not described here
[17] = target: Protein Aster-A (Homo sapiens) (UniProt Q96CP6); further: assay method not described here
[18] = target: Ephrin type-B receptor 2 (Homo sapiens, UniProt P29323); assay: Inhibition of Nano Luc-fused full length C-terminal EPHB2 (unknown origin) expressed in HEK293T cells using NanoGlo as substrate incubated for 2 hrs in presence of tracer by NanoBRET assay; type: cell-based
Ephrin type-B receptor 2, sequence (P29323 whole entry, the tested form may be a part): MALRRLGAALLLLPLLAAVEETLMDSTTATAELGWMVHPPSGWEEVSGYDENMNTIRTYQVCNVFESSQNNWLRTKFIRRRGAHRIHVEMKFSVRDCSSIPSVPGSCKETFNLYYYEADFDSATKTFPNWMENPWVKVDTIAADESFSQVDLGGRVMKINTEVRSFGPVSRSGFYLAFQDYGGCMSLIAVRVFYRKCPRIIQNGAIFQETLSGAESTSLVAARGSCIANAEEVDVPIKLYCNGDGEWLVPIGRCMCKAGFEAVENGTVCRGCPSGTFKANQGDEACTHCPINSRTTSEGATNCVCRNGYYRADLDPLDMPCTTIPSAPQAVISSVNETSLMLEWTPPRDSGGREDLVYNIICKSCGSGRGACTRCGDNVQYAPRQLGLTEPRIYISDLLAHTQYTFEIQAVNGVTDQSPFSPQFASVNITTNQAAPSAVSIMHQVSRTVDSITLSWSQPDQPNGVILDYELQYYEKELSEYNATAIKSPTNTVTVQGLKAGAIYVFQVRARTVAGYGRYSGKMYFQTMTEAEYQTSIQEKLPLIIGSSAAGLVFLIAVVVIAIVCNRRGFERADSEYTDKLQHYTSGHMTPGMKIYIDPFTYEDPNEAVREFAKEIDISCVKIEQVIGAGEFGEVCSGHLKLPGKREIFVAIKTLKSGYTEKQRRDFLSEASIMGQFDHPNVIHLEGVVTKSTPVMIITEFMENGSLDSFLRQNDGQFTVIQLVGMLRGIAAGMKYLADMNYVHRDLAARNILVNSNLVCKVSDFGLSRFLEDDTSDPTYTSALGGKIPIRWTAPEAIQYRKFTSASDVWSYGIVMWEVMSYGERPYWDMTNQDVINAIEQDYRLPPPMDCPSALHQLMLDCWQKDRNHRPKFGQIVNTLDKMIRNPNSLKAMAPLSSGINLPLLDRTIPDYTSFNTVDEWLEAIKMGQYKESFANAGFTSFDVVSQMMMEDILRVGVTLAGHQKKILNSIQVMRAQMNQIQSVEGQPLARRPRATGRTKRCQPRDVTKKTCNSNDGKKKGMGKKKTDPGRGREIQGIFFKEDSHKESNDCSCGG

[19] = target: tRNA N6-adenosine threonylcarbamoyltransferase (Homo sapiens) (UniProt Q9NPF4); further: assay method not described here
tRNA N6-adenosine threonylcarbamoyltransferase (Homo sapiens), sequence (Q9NPF4 whole entry): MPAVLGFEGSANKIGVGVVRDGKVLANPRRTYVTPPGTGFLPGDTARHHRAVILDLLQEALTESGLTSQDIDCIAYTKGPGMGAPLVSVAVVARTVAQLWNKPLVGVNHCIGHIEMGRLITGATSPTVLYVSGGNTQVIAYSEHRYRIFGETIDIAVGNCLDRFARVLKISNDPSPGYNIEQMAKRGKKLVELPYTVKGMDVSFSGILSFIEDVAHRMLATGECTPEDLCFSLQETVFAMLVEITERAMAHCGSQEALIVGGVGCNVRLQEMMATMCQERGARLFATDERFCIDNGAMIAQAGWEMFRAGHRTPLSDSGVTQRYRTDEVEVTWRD

[20] = target: Filamin-A (Homo sapiens) (UniProt P21333); further: assay method not described here
[21] = target: Discoidin domain-containing receptor 2 (Homo sapiens) (UniProt Q16832); further: assay method not described here
Discoidin domain-containing receptor 2 (Homo sapiens), sequence (Q16832 whole entry, the tested form may be a part): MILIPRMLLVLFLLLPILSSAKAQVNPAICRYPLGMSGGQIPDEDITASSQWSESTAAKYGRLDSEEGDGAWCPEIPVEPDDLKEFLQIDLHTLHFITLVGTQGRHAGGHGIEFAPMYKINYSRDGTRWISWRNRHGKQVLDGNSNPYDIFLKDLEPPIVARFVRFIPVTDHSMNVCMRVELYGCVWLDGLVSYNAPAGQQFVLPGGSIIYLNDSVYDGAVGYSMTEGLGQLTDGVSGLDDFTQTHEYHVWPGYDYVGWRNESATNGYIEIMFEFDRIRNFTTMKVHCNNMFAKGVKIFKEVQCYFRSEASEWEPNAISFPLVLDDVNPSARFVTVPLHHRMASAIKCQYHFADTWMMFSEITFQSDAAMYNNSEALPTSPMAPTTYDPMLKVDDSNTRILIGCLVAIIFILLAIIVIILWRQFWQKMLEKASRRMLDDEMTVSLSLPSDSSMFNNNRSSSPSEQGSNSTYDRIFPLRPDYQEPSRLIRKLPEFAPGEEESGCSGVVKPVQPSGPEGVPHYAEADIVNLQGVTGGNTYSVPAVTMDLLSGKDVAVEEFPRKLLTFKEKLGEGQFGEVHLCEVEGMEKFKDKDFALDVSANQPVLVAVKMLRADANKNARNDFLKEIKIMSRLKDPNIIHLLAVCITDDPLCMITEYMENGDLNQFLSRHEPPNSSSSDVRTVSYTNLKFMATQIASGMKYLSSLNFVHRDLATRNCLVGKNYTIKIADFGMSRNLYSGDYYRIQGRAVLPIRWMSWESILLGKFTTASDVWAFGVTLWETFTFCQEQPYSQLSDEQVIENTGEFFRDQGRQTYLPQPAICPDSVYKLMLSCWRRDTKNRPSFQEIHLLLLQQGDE

[22] = target: Mitogen-activated protein kinase 14 (Homo sapiens) (UniProt Q16539); further: assay method not described here
[23] = target: Proteasome subunit alpha type-5 (Homo sapiens) (UniProt P28066); further: assay method not described here
[24] = target: Neuronal migration protein doublecortin (Homo sapiens) (UniProt O43602); further: assay method not described here
[25] = target: Proteasome activator complex subunit 2 (Homo sapiens) (UniProt Q9UL46); further: assay method not described here
Proteasome activator complex subunit 2 (Homo sapiens), sequence (Q9UL46 whole entry, one chain of several): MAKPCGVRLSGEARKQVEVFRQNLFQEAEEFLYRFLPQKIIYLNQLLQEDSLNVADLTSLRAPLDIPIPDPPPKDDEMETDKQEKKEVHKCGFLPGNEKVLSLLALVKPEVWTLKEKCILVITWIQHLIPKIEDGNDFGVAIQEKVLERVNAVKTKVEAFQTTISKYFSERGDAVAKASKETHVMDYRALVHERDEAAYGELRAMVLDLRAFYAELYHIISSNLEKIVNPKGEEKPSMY

[26] = target: Heat shock protein 105 kDa (Homo sapiens) (UniProt Q92598); further: assay method not described here
[27] = target: Large ribosomal subunit protein uL4 (Homo sapiens) (UniProt P36578); further: assay method not described here
[28] = target: Dipeptidyl peptidase 2 (Homo sapiens) (UniProt Q9UHL4); further: assay method not described here
[29] = target: Vimentin (Homo sapiens) (UniProt P08670); further: assay method not described here
Vimentin (Homo sapiens), sequence (P08670 whole entry): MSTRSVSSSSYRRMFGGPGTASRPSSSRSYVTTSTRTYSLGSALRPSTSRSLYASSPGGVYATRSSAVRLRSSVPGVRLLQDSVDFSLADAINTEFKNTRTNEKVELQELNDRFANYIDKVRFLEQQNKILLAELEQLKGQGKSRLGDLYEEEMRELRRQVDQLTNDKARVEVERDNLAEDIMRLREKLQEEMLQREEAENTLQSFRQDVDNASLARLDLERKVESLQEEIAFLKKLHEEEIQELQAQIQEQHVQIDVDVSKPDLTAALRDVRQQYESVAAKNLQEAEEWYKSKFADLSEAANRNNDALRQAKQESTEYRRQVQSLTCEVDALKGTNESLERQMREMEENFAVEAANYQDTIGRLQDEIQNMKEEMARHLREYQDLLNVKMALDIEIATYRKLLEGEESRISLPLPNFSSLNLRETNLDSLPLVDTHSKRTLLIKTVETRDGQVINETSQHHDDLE

[30] = target: UDP-glucose:glycoprotein glucosyltransferase 1 (Homo sapiens) (UniProt Q9NYU2); further: assay method not described here
[31] = target: Maternal embryonic leucine zipper kinase (Homo sapiens) (UniProt Q14680); further: assay method not described here
[32] = target: Importin subunit beta-1 (Homo sapiens) (UniProt Q14974); further: assay method not described here
[33] = target: Chitobiosyldiphosphodolichol beta-mannosyltransferase (Homo sapiens) (UniProt Q9BT22); further: assay method not described here
[34] = target: MAP kinase-activated protein kinase 5 (Homo sapiens) (UniProt Q8IW41); further: assay method not described here
[35] = target: Ubiquitin carboxyl-terminal hydrolase 10 (Homo sapiens) (UniProt Q14694); further: assay method not described here
[36] = target: G2/mitotic-specific cyclin-B2 (Homo sapiens) (UniProt O95067); further: assay method not described here
G2/mitotic-specific cyclin-B2 (Homo sapiens), sequence (O95067 whole entry): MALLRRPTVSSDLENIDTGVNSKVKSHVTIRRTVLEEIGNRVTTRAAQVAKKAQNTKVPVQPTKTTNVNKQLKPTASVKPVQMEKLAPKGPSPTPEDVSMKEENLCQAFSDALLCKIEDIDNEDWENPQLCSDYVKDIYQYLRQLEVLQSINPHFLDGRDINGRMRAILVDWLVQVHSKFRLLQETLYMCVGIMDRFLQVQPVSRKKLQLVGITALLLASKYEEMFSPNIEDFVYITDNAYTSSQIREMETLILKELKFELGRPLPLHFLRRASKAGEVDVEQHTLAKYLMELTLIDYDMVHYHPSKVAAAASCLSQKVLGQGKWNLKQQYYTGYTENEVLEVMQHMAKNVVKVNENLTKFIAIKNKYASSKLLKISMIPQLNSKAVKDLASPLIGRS

[37] = target: HLA class I histocompatibility antigen, C alpha chain (Homo sapiens) (UniProt P10321); further: assay method not described here
[38] = target: Acidic fibroblast growth factor intracellular-binding protein (Homo sapiens) (UniProt O43427); further: assay method not described here
Acidic fibroblast growth factor intracellular-binding protein (Homo sapiens), sequence (O43427 whole entry): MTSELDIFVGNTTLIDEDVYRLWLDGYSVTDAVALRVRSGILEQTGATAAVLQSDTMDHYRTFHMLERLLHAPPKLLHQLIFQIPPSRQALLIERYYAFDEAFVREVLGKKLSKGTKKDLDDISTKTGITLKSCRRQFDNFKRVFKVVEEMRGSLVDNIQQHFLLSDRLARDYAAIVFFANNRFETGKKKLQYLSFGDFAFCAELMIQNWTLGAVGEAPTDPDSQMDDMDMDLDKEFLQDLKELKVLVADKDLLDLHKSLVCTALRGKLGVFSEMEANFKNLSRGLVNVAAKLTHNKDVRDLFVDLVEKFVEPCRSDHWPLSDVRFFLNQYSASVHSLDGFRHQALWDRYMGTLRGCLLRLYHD

[39] = target: Low molecular weight phosphotyrosine protein phosphatase (Homo sapiens) (UniProt P24666); further: assay method not described here
[40] = target: Signal recognition particle subunit SRP72 (Homo sapiens) (UniProt O76094); further: assay method not described here
[41] = target: Heterogeneous nuclear ribonucleoprotein U-like protein 1 (Homo sapiens) (UniProt Q9BUJ2); further: assay method not described here
[42] = target: Large ribosomal subunit protein eL36 (Homo sapiens) (UniProt Q9Y3U8); further: assay method not described here
[43] = species: Homo sapiens; remark: listed apart in the source; further: assay method not described here
[44] = target: Glucose-6-phosphate isomerase (Homo sapiens) (UniProt P06744); further: assay method not described here
[45] = target: Unhealthy ribosome biogenesis protein 2 homolog (Homo sapiens) (UniProt Q14146); further: assay method not described here
[46] = target: 14-3-3 protein theta (Homo sapiens) (UniProt P27348); further: assay method not described here

Cc1ccc(C(=O)Nc2cccc(C(F)(F)F)c2)cc1Nc1nc(-c2cccnc2)nc2c1cnn2C
ED50 [1]: 20500 µM | ED50 [2]: 0.0201 µM | ED50 [3]: 0.00127 µM | ED50 [4]: 0.0117 µM | ED50 [5]: 21.6 µM | ED50 [6]: 0.00995 µM | ED50 [7]: 3.66 µM | ED50 [8]: 1.4 µM | ED50 [9]: 0.000716 µM | ED50 [10]: 0.00459 µM | ED50 [11]: 4.6 µM | ED50 [12]: 0.00551 µM | ED50 [13]: 4.89 µM | ED50 [14]: 0.017 µM | ED50 [15]: 0.0274 µM | ED50 [16]: 0.27 µM | ED50 [17]: 29.6 µM | IC50 [18]: 0.0025 µM | ED50 [19]: 7.56 µM | ED50 [20]: 7.88 µM | ED50 [21]: 0.542 µM | ED50 [22]: 1 µM | ED50 [23]: 2.11 µM | ED50 [24]: 0.536 µM | ED50 [25]: 1.06 µM | ED50 [26]: 2.99 µM | ED50 [27]: 4.73 µM | ED50 [28]: 0.00529 µM | ED50 [29]: 1.03 µM | ED50 [30]: 54.5 µM | ED50 [31]: 0.0176 µM | ED50 [32]: 3.71 µM | ED50 [33]: 1.14 µM | ED50 [34]: 26.2 µM | ED50 [35]: 4.33 µM | ED50 [36]: 3.13 µM | ED50 [37]: 3.75 µM | ED50 [38]: 3.14 µM | ED50 [39]: 67.2 µM | ED50 [40]: 0.00763 µM | ED50 [41]: 0.922 µM | ED50 [42]: 10.5 µM | ED50 [43]: 322 µM | ED50 [44]: 4.55 µM | ED50 [45]: 2.88 µM | ED50 [46]: 0.0211 µM

Cc1ccc(C(=O)Nc2cccc(C(F)(F)F)c2)cc1Nc1nc(-c2cccnc2)nc2nn(C)cc12
ED50 [1]: 28.7 µM | ED50 [2]: 0.0236 µM | ED50 [3]: 0.869 µM | ED50 [4]: 0.0836 µM | ED50 [5]: 0.169 µM | ED50 [6]: 0.0846 µM | ED50 [7]: 17.5 µM | ED50 [8]: 2.25 µM | ED50 [9]: 2.85 µM | ED50 [10]: 0.00542 µM | ED50 [11]: 0.135 µM | ED50 [12]: 0.318 µM | ED50 [13]: 4.73 µM | ED50 [14]: 0.0151 µM | ED50 [15]: 11 µM | ED50 [16]: 3.41 µM | ED50 [17]: 0.495 µM | IC50 [18]: 0.63 µM | ED50 [19]: 8.47 µM | ED50 [20]: 21.4 µM | ED50 [21]: 0.387 µM | ED50 [22]: 18.2 µM | ED50 [23]: 214 µM | ED50 [24]: 9.4 µM | ED50 [25]: 9.77 µM | ED50 [26]: 8.65 µM | ED50 [27]: 24.9 µM | ED50 [28]: 0.504 µM | ED50 [29]: 1.62 µM | ED50 [30]: 0.0435 µM | ED50 [31]: 6.57 µM | ED50 [32]: 0.0534 µM | ED50 [33]: 0.0163 µM | ED50 [34]: 0.047 µM | ED50 [35]: 0.0387 µM | ED50 [36]: 13.5 µM | ED50 [37]: 2.07 µM | ED50 [38]: 0.0301 µM | ED50 [39]: 0.0395 µM | ED50 [40]: 0.614 µM | ED50 [41]: 2.56 µM | ED50 [42]: 0.0103 µM | ED50 [43]: 0.0718 µM | ED50 [44]: 36500 µM | ED50 [45]: 2.12 µM | ED50 [46]: 1.35 µM
